In assay [1] the target is T1, D(4) dopamine receptor (Homo sapiens, UniProt P21917).
T1 sequence (P21917 whole entry): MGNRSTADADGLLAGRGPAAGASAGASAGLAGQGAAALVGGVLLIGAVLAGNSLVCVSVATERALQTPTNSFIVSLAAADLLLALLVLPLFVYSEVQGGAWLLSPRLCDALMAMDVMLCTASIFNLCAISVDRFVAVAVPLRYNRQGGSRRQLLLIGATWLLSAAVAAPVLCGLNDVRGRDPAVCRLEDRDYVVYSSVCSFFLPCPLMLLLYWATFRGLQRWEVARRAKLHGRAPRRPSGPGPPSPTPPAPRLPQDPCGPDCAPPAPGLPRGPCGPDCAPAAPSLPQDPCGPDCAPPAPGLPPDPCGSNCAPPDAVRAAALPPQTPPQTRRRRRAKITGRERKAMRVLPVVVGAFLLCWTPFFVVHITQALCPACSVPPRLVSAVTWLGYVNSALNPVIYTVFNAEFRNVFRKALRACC
Briefly: Binding affinity of compound measured using [3H]spiperone for the cloned human dopamine receptor D4.4 (high/low affinity is given as 87/23000).

The target of assay [2] is T2, D(3) dopamine receptor (Homo sapiens, UniProt P35462). Kind of assay: Effective concentration required for agonistic activity against human D3 receptor. It is filed as functional.
The target in assay [3] is T3, D(2) dopamine receptor (Homo sapiens, UniProt P14416). Kind of assay: Binding affinity of compound measured using [3H]spiperone for the cloned human dopamine receptor D2 long (high/low affinity is given as 230/53000).
In the next assay the target is D(1A) dopamine receptor (Bos taurus, UniProt Q95136). Briefly: Binding affinity of compound measured against Dopamine receptor D1 from bovine striatal membranes using radioligand [3H]-SCH- 23390.
The target of assay [4] is T3, D(2) dopamine receptor. Briefly: Binding affinity of compound measured using [3H]spiperone for the cloned human dopamine receptor D2 short (high/low affinity is given as 130/50000).
For assay [5], the target named is T4, D(2) dopamine receptor (Rattus norvegicus, UniProt P61169). Kind of assay: Effective concentration required for agonistic activity against rat D2 short receptor. It is filed as functional.
For assay [6], the target named is T4, D(2) dopamine receptor. Kind of assay: Effective concentration required for agonistic activity against rat D2 long receptor. It is filed as functional.
Assay [7] concerns the target T5, D(2) dopamine receptor (Bos taurus, UniProt P20288). Kind of assay: Binding affinity of compound against Dopamine receptor D2 was measured using [3H]pramipexole in Bovine striatal membranes. It is filed as cell membranes, Striatum, Membrane.
Assay [8] has as its target T1, D(4) dopamine receptor. Kind of assay: Effective concentration required for agonistic activity against human D4.2 receptor. It is filed as functional.
Assay [9] deals with T2, D(3) dopamine receptor.
Description: Binding affinity of compound measured using [3H]spiperone for the cloned human Dopamine receptor D3 (high/low affinity is given as 16/16000)
Assay [10] addresses T5, D(2) dopamine receptor.
Assay [11] addresses T1, D(4) dopamine receptor. Briefly: Binding affinity of compound measured using [3H]spiperone for the cloned human dopamine receptor D4.4 (high/low affinity is given as 16/1300).
In assay [12] the target is T3, D(2) dopamine receptor. Kind of assay: Binding affinity of compound measured using [3H]spiperone for the cloned human Dopamine receptor D2L (high/low affinity is given as 85/6400).
Assay [13] deals with T2, D(3) dopamine receptor. The source holds these as a separate data set.
The target of assay [14] is T2, D(3) dopamine receptor. Briefly: Effective concentration required for agonistic activity against human Dopamine receptor D3.
The target of assay [15] is T1, D(4) dopamine receptor. Kind of assay: Binding affinity of compound measured using [3H]spiperone for the cloned human dopamine receptor D4.4 (high/low affinity is given as 50/2200).
For assay [16], the target named is T4, D(2) dopamine receptor. Kind of assay: Effective concentration required for agonistic activity against rat Dopamine receptor D2L. It is filed as functional.
Assay [17] addresses T3, D(2) dopamine receptor. Kind of assay: Binding affinity of compound measured using [3H]spiperone for the cloned human dopamine receptor D2 short (high/low affinity is given as 35/3700).

Here are results for four compounds from ChEMBL document CHEMBL1134894, “Fused azaindole derivatives: molecular design, synthesis and in vitro pharmacology leading to the preferential dopamine D3 receptor agonist FAUC 725” (Bioorg Med Chem Lett, 2002).

Some results are limits rather than exact numbers.

T3 sequence (P14416 whole entry): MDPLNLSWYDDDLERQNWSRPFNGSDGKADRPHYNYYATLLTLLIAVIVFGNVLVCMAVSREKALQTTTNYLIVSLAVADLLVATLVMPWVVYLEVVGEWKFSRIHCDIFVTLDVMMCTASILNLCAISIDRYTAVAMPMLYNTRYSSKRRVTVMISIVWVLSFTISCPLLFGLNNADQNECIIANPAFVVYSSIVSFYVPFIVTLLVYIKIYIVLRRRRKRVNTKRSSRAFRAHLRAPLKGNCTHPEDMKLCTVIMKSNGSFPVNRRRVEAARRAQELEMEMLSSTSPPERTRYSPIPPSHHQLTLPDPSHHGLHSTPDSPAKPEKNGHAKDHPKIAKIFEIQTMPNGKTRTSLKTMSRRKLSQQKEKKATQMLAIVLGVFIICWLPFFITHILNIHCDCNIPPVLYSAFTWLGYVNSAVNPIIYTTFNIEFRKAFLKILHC
T4 sequence (P61169 whole entry): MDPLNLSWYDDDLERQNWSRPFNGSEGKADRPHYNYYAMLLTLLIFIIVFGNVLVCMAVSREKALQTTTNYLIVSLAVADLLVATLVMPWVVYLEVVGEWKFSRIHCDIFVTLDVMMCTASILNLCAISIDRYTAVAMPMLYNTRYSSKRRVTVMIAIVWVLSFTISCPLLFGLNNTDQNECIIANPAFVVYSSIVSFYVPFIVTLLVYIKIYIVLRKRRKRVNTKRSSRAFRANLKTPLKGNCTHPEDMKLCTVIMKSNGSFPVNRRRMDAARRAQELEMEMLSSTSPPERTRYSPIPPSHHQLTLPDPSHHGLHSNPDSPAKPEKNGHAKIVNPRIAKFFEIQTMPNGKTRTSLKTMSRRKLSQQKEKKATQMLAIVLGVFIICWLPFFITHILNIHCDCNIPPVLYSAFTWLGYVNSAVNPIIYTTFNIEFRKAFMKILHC
T5 sequence (P20288 whole entry): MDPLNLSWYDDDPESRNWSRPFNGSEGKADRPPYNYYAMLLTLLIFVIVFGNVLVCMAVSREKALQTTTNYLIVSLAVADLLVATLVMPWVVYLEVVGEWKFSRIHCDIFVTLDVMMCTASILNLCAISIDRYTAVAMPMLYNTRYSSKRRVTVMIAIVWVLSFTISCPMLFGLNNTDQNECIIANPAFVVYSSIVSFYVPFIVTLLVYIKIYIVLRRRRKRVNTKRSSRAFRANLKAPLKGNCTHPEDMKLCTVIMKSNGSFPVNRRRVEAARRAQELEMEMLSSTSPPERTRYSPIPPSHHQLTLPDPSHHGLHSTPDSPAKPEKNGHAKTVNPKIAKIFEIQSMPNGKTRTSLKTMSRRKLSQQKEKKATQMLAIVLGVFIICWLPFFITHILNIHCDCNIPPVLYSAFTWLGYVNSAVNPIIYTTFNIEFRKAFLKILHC
T2 sequence (P35462 whole entry): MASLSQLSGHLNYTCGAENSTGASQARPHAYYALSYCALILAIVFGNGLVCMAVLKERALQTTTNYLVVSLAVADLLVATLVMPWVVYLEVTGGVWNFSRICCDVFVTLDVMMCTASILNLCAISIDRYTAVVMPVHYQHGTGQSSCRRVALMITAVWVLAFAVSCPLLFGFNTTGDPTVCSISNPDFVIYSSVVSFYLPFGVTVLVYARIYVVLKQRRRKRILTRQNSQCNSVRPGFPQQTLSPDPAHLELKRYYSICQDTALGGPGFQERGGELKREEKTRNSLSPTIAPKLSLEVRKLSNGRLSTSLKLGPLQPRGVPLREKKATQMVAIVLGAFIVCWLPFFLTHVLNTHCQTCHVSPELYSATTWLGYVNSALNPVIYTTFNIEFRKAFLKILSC
Sequence of D(1A) dopamine receptor (Q95136 whole entry): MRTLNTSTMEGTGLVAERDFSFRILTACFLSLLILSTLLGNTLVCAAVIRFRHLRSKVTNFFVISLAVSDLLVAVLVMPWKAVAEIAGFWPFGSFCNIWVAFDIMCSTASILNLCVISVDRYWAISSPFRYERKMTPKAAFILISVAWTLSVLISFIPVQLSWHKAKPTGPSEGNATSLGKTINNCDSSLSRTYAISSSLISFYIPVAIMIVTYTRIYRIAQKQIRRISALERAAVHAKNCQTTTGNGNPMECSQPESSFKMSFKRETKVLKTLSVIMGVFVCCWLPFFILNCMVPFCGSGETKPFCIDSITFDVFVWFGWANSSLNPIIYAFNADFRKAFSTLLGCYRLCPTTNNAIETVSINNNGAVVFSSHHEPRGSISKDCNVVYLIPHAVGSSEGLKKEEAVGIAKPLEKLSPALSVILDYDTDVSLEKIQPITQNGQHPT

In the case of `CCCN1CCc2nn3ccccc3c2C1`, the Ki – broadly, the dissociation constant of the complex between target and ligand, obtained from inhibition or displacement – worked out at 87 nM on D(4) dopamine receptor [1]; 230 nM at D(2) dopamine receptor [3]; 21000 nM on D(1A) dopamine receptor; 130 nM on D(2) dopamine receptor [4]; 3100 nM on D(2) dopamine receptor [7]; 16 nM at D(3) dopamine receptor [9]. For the same compound, the EC50 at D(3) dopamine receptor [2], at D(2) dopamine receptor [5], at D(2) dopamine receptor [6] and on D(4) dopamine receptor [8] was over 1000 nM each time.
For `CCCN[C@H]1CCc2nc(N)sc2C1` [PRAMIPEXOLE], the Kd (commonly the equilibrium constant for the complex coming apart) on D(2) dopamine receptor [10] came to 1.6 nM.
With `CCCN1CCC[C@@H](c2cccc(O)c2)C1` [PRECLAMOL], the results for the Ki on D(4) dopamine receptor [11] and at D(2) dopamine receptor [7] were 16 nM and 52 nM, respectively. Further, the EC50 (usually the midpoint of the concentration-response curve) at D(4) dopamine receptor [8] was 60 nM.
As for `CCCN(CCC)[C@H]1CCc2nn3ccccc3c2C1`, the Ki was 85 nM on D(2) dopamine receptor [12]; 0.54 nM at D(3) dopamine receptor [13]; 18000 nM at D(1A) dopamine receptor; 8.6 nM at D(2) dopamine receptor [7]; 50 nM on D(4) dopamine receptor [15]; 35 nM on D(2) dopamine receptor [17]. The EC50 at D(2) dopamine receptor [5] came to 47 nM; at D(4) dopamine receptor [8] it was 430 nM; on D(3) dopamine receptor [14], 2.8 nM; on D(2) dopamine receptor [16], 16 nM.
